Measured values taken from patent publication US20180148418A1, “AMIDO-SUBSTITUTED CYCLOHEXANE DERIVATIVES” (Bayer Pharma Aktiengesellschaft, priority 2015, published 2018).

Assays:
[1] = system: HEK293 cells cotransfected with the FOP control vector; experiment: HEK293 FOP assay (control reporter with non-functional TCF elements); format: cell-based; settings: Homo sapiens, 16 hours
How it was run: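 Stable HEK293 line carrying FOP control reporter (randomized non-functional TCF sites, with pcDNA3), Geneticin-selected, plated 24 h before assay. Stimulated with recombinant human Wnt-3a (2500-5 ng/ml) and compounds 50 μM–15 nM (3.16-fold steps) in CAFTY buffer pH 7.4 with 2 mM Ca2+, 0.01% BSA, run parallel to TOP line.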

[2] = target: T1, TNKS1 (Homo sapiens, UniProt O95271); experiment: TNKS1 Assay B (auto-parsylation, [3H]-NAD+ SPA); format: biochemical; settings: 6 nM TNKS1, auto-parsylation, over night at room temperature
T1 construct: purchased BPS Bioscience, San Diego, USA 80579 (TNKS1 Histone Ribosylation Assay Kit)
T1 sequence (O95271 1-1327): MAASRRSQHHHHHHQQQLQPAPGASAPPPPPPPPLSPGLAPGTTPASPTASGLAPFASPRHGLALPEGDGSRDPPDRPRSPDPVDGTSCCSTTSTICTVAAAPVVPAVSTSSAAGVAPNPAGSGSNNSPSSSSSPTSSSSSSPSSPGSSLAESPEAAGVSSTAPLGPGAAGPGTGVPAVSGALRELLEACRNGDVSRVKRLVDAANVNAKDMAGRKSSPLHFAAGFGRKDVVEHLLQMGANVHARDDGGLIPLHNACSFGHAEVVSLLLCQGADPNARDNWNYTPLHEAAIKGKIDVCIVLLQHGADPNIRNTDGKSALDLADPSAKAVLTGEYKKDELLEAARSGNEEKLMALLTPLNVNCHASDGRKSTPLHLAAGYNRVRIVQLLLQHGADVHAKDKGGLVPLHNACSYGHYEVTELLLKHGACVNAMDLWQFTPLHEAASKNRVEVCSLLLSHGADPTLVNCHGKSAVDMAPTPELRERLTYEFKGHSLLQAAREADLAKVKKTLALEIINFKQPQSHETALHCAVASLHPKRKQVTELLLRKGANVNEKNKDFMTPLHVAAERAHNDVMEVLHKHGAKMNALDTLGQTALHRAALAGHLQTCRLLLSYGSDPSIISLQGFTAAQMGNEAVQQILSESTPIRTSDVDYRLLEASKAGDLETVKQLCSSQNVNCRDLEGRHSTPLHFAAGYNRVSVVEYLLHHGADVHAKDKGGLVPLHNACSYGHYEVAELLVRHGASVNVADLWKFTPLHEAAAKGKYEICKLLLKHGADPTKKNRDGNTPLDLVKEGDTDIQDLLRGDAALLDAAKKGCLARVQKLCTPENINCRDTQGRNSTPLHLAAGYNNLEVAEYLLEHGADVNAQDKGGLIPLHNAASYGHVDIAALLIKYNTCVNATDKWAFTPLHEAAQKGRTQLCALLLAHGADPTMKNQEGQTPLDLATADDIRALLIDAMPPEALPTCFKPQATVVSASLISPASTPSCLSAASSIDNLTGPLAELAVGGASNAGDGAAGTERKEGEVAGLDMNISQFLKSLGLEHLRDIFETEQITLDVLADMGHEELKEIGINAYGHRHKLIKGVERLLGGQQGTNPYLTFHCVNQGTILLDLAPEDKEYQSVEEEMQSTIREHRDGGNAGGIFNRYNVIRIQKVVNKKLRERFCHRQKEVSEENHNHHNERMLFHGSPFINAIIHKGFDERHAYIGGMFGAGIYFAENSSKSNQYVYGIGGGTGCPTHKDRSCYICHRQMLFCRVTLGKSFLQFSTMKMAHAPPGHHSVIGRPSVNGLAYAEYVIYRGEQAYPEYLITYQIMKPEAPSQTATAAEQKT

IC50 [2] [nM]	Compound	IC50 [1] [nM]
650	CC(C)(O)CNC(=O)c1nc[nH]c1C(=O)N[C@H]1CC[C@@]2(CCN(c3cccc(Cl)c3)C2=O)CC1 [Example 284, N^5-[(trans)-2-(3-chlorophenyl)-1-oxo-2-azaspiro[4.5]dec-8-yl]-N^4-(2-hydroxy-2-methylpropyl)-1H-imidazole-4,5-dicarboxamide]	6800
> 10000	Cc1cc(C2CC2)nc2c(C(=O)N[C@H]3CC[C@H](C(=O)Nc4ccc(F)cc4Cl)CC3)cnn12 [Example 62, N-{trans-4-[(2-chloro-4-fluorophenyl)carbamoyl]cyclohexyl}-5-cyclopropyl-7-methylpyrazolo[1,5-a]pyrimidine-3-carboxamide]	≥ 50000
> 10000	CNC(=O)c1[nH]cnc1C(=O)NC1CCC(F)(C(=O)Nc2ccc(F)cc2Cl)CC1 (single isomer, unassigned) [Example 366, N^4-{4-[(2-chloro-4-fluorophenyl)carbamoyl]-4-fluorocyclohexyl}-N^5-methyl-1H-imidazole-4,5-dicarboxamide (single isomer)]	≥ 50000
370	COC[C@@H](C)NC(=O)c1nc[nH]c1C(=O)N[C@H]1CC[C@H](C(=O)Nc2ccc(F)cc2Cl)CC1 [Example 84, N^5-{trans-4-[(2-chloro-4-fluorophenyl)carbamoyl]cyclohexyl}-N^4-[(2R)-1-methoxypropan-2-yl]-1H-imidazole-4,5-dicarboxamide]	≥ 50000
75	O=C(NCC1CCCO1)c1nc[nH]c1C(=O)N[C@H]1CC[C@H](C(=O)Nc2ccc(F)cc2Cl)CC1 (stereo partly drawn) [Example 78, N^5-{trans-4-[(2-chloro-4-fluorophenyl)carbamoyl]cyclohexyl}-N^4-(tetrahydrofuran-2-ylmethyl)-1H-imidazole-4,5-dicarboxamide]	9700
10	Cc1cc(N2CC[C@]3(CC[C@@H](NC(=O)c4[nH]cnc4C(=O)NCC(F)(F)F)CC3)C2=O)c(Cl)cc1F [Example 297, N^5-[(trans)-2-(2-chloro-4-fluoro-5-methylphenyl)-1-oxo-2-azaspiro[4.5]dec-8-yl]-N^4-(2,2,2-trifluoroethyl)-1H-imidazole-4,5-dicarboxamide]	9300
2500	O=C(N[C@H]1CC[C@H](C(=O)Nc2ccc(F)cc2Cl)CC1)c1cnc2ccc(O)nn12 [Example 360, N-{trans-4-[(2-chloro-4-fluorophenyl)carbamoyl]cyclohexyl}-6-hydroxyimidazo[1,2-b]pyridazine-3-carboxamide]	≥ 50000
530	O=C(N[C@H]1CC[C@H](C(=O)Nc2ccc(F)cc2Cl)CC1)c1cnc2ccc(Cl)nn12 [Example 47, 6-chloro-N-{trans-4-[(2-chloro-4-fluorophenyl)carbamoyl]cyclohexyl}imidazo[1,2-b]pyridazine-3-carboxamide]	16000
720	CNC(=O)c1[nH]cnc1C(=O)N[C@H]1CC[C@H](C(=O)Nc2ccc(F)cc2Cl)CC1(F)F (single isomer, unassigned) [Example 33, N^4-{(trans)-4-[(2-chloro-4-fluorophenyl)carbamoyl]-2,2-difluorocyclohexyl}-N^5-methyl-1H-imidazole-4,5-dicarboxamide]	≥ 50000
170	COCC(C)NC(=O)c1nc[nH]c1C(=O)N[C@H]1CC[C@H](C(=O)Nc2c(F)cc(F)cc2Cl)CC1 (stereo partly drawn) [Example 65, N^5-{trans-4-[(2-chloro-4,6-difluorophenyl)carbamoyl]cyclohexyl}-N^4-(1-methoxypropan-2-yl)-1H-imidazole-4,5-dicarboxamide]	≥ 50000
57	O=C(NCC1CCCO1)c1nc[nH]c1C(=O)N[C@H]1CC[C@H](C(=O)Nc2c(F)cc(F)cc2Cl)CC1 (stereo partly drawn) [Example 69, N^5-{trans-4-[(2-chloro-4,6-difluorophenyl)carbamoyl]cyclohexyl}-N^4-(tetrahydrofuran-2-ylmethyl)-1H-imidazole-4,5-dicarboxamide]	≥ 50000
22	CN(C)c1ccc2ncc(C(=O)N[C@H]3CC[C@H](C(=O)Nc4ccc(F)cc4Cl)CC3)n2n1 [Example 52, N-{trans-4-[(2-chloro-4-fluorophenyl)carbamoyl]cyclohexyl}-6-(dimethylamino)imidazo[1,2-b]pyridazine-3-carboxamide]	40000
55	O=C(N[C@H]1CC[C@H](C(=O)Nc2ccc(F)cc2Cl)CC1)c1[nH]cnc1C(=O)N1CC(F)(F)C1 [Example 72, N-{trans-4-[(2-chloro-4-fluorophenyl)carbamoyl]cyclohexyl}-4-[(3,3-difluoroazetidin-1-yl)carbonyl]-1H-imidazole-5-carboxamide]	≥ 50000
120	Cc1cnc2c(C(=O)N[C@H]3CC[C@H](C(=O)Nc4ccc(F)cc4Cl)CC3)cnn2c1 [Example 61, N-{trans-4-[(2-chloro-4-fluorophenyl)carbamoyl]cyclohexyl}-6-methylpyrazolo[1,5-a]pyrimidine-3-carboxamide]	≥ 50000
60	COC(C)CNC(=O)c1nc[nH]c1C(=O)N[C@H]1CC[C@H](C(=O)Nc2c(F)cc(F)cc2Cl)CC1 (stereo partly drawn) [Example 68, N^5-{trans-4-[(2-chloro-4,6-difluorophenyl)carbamoyl]cyclohexyl}-N^4-(2-methoxypropyl)-1H-imidazole-4,5-dicarboxamide]	33000
950	Nc1nn2cccnc2c1C(=O)N[C@H]1CC[C@H](C(=O)Nc2ccc(F)cc2Cl)CC1 [Example 59, 2-amino-N-{trans-4-[(2-chloro-4-fluorophenyl)carbamoyl]cyclohexyl}pyrazolo[1,5-a]pyrimidine-3-carboxamide]	≥ 50000
27	COCC(C)NC(=O)c1nc[nH]c1C(=O)N[C@H]1CC[C@H](C(=O)Nc2cc(F)c(F)cc2Cl)CC1 (stereo partly drawn) [Example 87, N^5-{trans-4-[(2-chloro-4,5-difluorophenyl)carbamoyl]cyclohexyl}-N^4-(1-methoxypropan-2-yl)-1H-imidazole-4,5-dicarboxamide]	≥ 50000
10	O=C(N[C@H]1CC[C@H](C(=O)Nc2ccc(F)cc2Cl)CC1)c1[nH]cnc1C(=O)N1CC2(CCS2(=O)=O)C1 [Example 22, N-{trans-4-[(2-chloro-4-fluorophenyl)carbamoyl]cyclohexyl}-4-[(1,1-dioxido-1-thia-6-azaspiro[3.3]hept-6-yl)carbonyl]-1H-imidazole-5-carboxamide]	≥ 50000
12	COCCNC(=O)c1nc[nH]c1C(=O)N[C@H]1CC[C@@]2(CCN(c3cc(C)c(F)cc3Cl)C2=O)CC1 [Example 334, N^5-[(trans)-2-(2-chloro-4-fluoro-5-methylphenyl)-1-oxo-2-azaspiro[4.5]dec-8-yl]-N^4-(2-methoxyethyl)-1H-imidazole-4,5-dicarboxamide]	≥ 50000
84	O=C(NCCC1CC1)c1nc[nH]c1C(=O)N[C@H]1CC[C@H](C(=O)Nc2ccc(F)cc2Cl)CC1 [Example 74, N^5-{trans-4-[(2-chloro-4-fluorophenyl)carbamoyl]cyclohexyl}-N^4-(2-cyclopropylethyl)-1H-imidazole-4,5-dicarboxamide]	32000

Compound	IC50 [2] [nM]	IC50 [1] [nM]
CNC(=O)c1[nH]cnc1C(=O)N[C@@H]1CC[C@@H](C(=O)Nc2ccc(F)cc2Cl)C[C@H]1OC (racemic) [Example 35, N^4-{(1α,2β,4β)-4-[(2-chloro-4-fluorophenyl)carbamoyl]-2-methoxycyclohexyl}-N^5-methyl-1H-imidazole-4,5-dicarboxamide]	> 10000	≥ 50000
